Type in all cases: binding
Test [1] concerns the target T1, PCSK9 (Homo sapiens, UniProt Q8NBP7).
T1 construct: biotin (biotinylated); purchased
Briefly: PCSK9 Alexa FRET Plus TR-FRET assay. To be noted: Ki calculated from IC50 and KD of AF cyclic peptide Reagent B; 0.5 nM PCSK9, 960 nM AF cyclic peptide; read-out: Alexa FRET Plus TR-FRET. In a few lines:
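Compounds displace an AlexaFluor-labeled cyclic peptide (1920 nM solution, not final) from europium-tagged PCSK9; time-resolved FRET read after ≥2 h at room temperature. Ki derived from fitted IC50 and peptide KD, europium donor counts monitored to detect compound interference, results given in nanomolar.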

In test [2] the target is T1, PCSK9. Briefly: PCSK9 Alexa FRET Ultra TR-FRET assay. To be noted: Ki Ultra, calculated from IC50 and KD of AF cyclic peptide; 0.5 nM PCSK9, 960 nM AF cyclic peptide; read-out: Alexa FRET Ultra TR-FRET. In a few lines: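 TR-FRET read after ≥2 h at room temperature between europium-PCSK9 and an AlexaFluor cyclic peptide, stated as a 1920 nM solution. Sigmoidal nonlinear regression gives IC50, and Ki in nM follows from the peptide KD; europium counts are monitored for compound interference.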

Test [3] has as its target T1, PCSK9. Briefly: PCSK9 Alexa FRET Standard TR-FRET assay. To be noted: Ki calculated from IC50 and KD of AF cyclic peptide Reagent A; 0.5 nM PCSK9, 20 nM AF cyclic peptide; read-out: Alexa FRET Stdt TR-FRET. In a few lines: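 Ki (nM) calculated from sigmoidal-fit IC50 and the KD of an AlexaFluor-labelled cyclic peptide (20 nM final) competing with compound for biotinylated PCSK9 (0.5 nM) bound to Eu-streptavidin (1.25 nM). Incubation at least 2 h, room temperature, HEPES pH 7.4 buffer with CaCl2; falling europium counts flag false positives.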

T1 sequence (Q8NBP7 153-692): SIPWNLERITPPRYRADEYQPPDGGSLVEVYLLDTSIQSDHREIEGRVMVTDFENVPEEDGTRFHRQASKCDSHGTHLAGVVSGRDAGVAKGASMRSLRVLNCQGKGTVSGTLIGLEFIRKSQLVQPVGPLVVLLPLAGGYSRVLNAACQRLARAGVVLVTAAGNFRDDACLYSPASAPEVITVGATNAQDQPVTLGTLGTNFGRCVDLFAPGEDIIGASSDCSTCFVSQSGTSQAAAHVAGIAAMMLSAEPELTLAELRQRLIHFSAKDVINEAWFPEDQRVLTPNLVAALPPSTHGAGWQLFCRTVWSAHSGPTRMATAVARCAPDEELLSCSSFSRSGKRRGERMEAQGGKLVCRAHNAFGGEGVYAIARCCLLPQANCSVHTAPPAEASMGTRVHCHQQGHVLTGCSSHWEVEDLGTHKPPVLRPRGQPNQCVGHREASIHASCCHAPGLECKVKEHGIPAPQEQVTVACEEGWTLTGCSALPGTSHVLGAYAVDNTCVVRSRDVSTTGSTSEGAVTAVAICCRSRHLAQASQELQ

In the case of `COc1ccc(C[C@@H]2NC(=O)[C@H]([C@@H](C)O)NC(=O)[C@@H]3[C@@H]4CCN3C(=O)[C@@H]3Cc5cn(c6ccc(F)cc56)CCCCCCN(Cc5ccc(cc5)CCNC(=O)[C@]5(C)CCCN5C2=O)C(=O)CCC(=O)N[C@@H](C)C(=O)N[C@H](CNC(=O)CCOCCOCC[N+](C)(C)CCNC(=O)COCCOCCNC(=O)COCCOCCNC(=O)CC[C@H](NC(=O)CCCCCCCCCCCCCCCCC(=O)O)C(=O)O)C(=O)N[C@@H](Cc2cccc(c2)CNC(=O)CO4)C(=O)N3)cc1` [Ex-22], the Ki on PCSK9 [1] is 15 pM; on PCSK9 [2], 4 pM; on PCSK9 [3], below 1.26 nM.
For `COc1ccc(C[C@@H]2NC(=O)[C@H]([C@@H](C)O)NC(=O)[C@@H]3[C@@H]4CCN3C(=O)[C@@H]3Cc5cn(c6ccc(F)cc56)CCCCCCN(Cc5ccc(cc5)CCNC(=O)[C@]5(C)CCCN5C2=O)C(=O)CCC(=O)N[C@@H](CNC(=O)COCCOCC[N+](C)(C)CCOCCNC(=O)COCCOCCNC(=O)COCCOCCNC(=O)CC[C@H](NC(=O)CC[C@H](NC(=O)CCCCCCCCCCCCCCC(=O)O)C(=O)O)C(=O)O)C(=O)N[C@H](C)C(=O)N[C@@H](Cc2cccc(c2)CNC(=O)CO4)C(=O)N3)cc1` [Ex-60] the same measures were 8 pM, 62 pM and below 1.26 nM.
In the case of `COc1ccc(C[C@@H]2NC(=O)[C@H]([C@@H](C)O)NC(=O)[C@@H]3[C@@H]4CCN3C(=O)[C@@H]3Cc5cn(c6ccc(F)cc56)CCCCCCN(Cc5ccc(cc5)CCNC(=O)[C@]5(C)CCCN5C2=O)C(=O)CCC(=O)N[C@@H](C)C(=O)N[C@H](CNC(=O)COCCOCCNC(=O)COCCOCCNC(=O)CC[C@H](NC(=O)CCCCCCCCCCCCCCC(=O)O)C(=O)O)C(=O)N[C@@H](Cc2cccc(c2)CNC(=O)CO4)C(=O)N3)cc1` [Ex-41], the Ki was below 6 pM at PCSK9 [1], 5 pM at PCSK9 [2] and below 1.26 nM on PCSK9 [3].
For `COc1ccc(C[C@@H]2NC(=O)[C@H]([C@@H](C)O)NC(=O)[C@@H]3[C@@H]4CCN3C(=O)[C@@H]3Cc5cn(c6ccc(F)cc56)CCCCCCN(Cc5ccc(cc5)CCNC(=O)[C@]5(C)CCCN5C2=O)C(=O)CCC(=O)N[C@@H](C)C(=O)N[C@H](CNC(=O)COCCOCC[N+](C)(C)CCOCCNC(=O)COCCOCCNC(=O)COCCOCCNC(=O)CC[C@H](NC(=O)CC[C@H](NC(=O)CCCCCCCCCCCCCCC(=O)O)C(=O)O)C(=O)O)C(=O)N[C@@H](Cc2cccc(c2)CNC(=O)CO4)C(=O)N3)cc1` [Ex-47] the same measures were below 6 pM, 3 pM and below 1.26 nM.
For `COc1ccc(C[C@@H]2NC(=O)[C@H]([C@@H](C)O)NC(=O)[C@@H]3[C@@H]4CCN3C(=O)[C@@H]3Cc5cn(c6ccc(F)cc56)CCCCCCN(Cc5ccc(cc5)CCNC(=O)[C@]5(C)CCCN5C2=O)C(=O)CCC(=O)N[C@@H](C)C(=O)N[C@H](CNC(=O)CCOCCOCC[N+](C)(C)CCNC(=O)COCCOCCNC(=O)COCCOCCNC(=O)CCC(CS(=O)(=O)O)NC(=O)CCCCCCCCCCCCCCCCC(=O)O)C(=O)N[C@@H](Cc2cccc(c2)CNC(=O)CO4)C(=O)N3)cc1` (stereo partly drawn) [Ex-67], the Ki on PCSK9 [1] is below 6 pM; on PCSK9 [2], 5 pM; on PCSK9 [3], below 1.26 nM.

These data come from patent publication US12178842B2, “PCSK9 antagonist compounds” (MERCK SHARP & DOHME LLC, priority 2019, dated 2024).
